Results: patent US5852015A, “Triazine containing anionic compounds useful as antiviral agents” (American Cyanamid Company, priority 1997, dated 1998)
“And” between values parts separate entries of the source, which are not always exact repeats. Equal values may be shown once. Where a name gives a salt, the structure may show the parent alone. Read-outs that look alike come from different tables or passages of the source.

What was measured:
[1] = test system: RSV (A2); assay: viral yield reduction assay (growth inhibition), RSV; assay type: cell-based, human respiratory syncytial virus; details: 4 days; for IC50: human respiratory syncytial virus, 96 h
Description: (§1) The compounds were tested for biological activity using viral yield reduction assays. Host cells (indicated as HF for human foreskin fibroblasts and as vero, the commonly used African green monkey cell line, in Tables 1 and 1a) were plated at 4×10^4 cells/well in cell growth medium with 2% fetal bovine serum or 2% calf serum in 96-well plates (0.1 ml/well) and incubated overnight. The compounds were added to individual wells to give final concentrations ranging from 50 to 0.1 μg/ml in two-fold concentration steps. After 1 hour, virus was added, and the incubation was continued for 4 days with RSV or CMV and for 2 days with HSV. At the end of the experiment, the amount of virus growth was quantitated and the yield reduction at various concentrations of compound was calculated. This allows estimation of the concentration of compound giving 50% reduction in virus growth (IC50).
(§2) Table 1. Fifty percent inhibitory concentrations for growth inhibition
(§3) (yield reduction) and for plaque formation were determined as described i
(§4) the text. The virus strains used were RSV (A2), CMV (Ad169), HSV1
(§5) (Patton). The host cells used were human foreskin fibroblasts (HF) and […]

[2] = test system: syncytium formation in cells previously infected with RSV; assay: syncytium formation in RSV-infected vero cells; assay type: cell-based, African green monkey
Description: This was done by infecting vero cells at a multiplicity of infection of 3 for 1 hour, then replacing the original medium with fresh medium. After 6 hours incubation, compound was added. After 24 and 48 hours, the infected cells were examined under the microscope to determine the extent of syncytium formation. Differences in the extent of syncytium formation due to the presence of compound were easily recognized and the compounds were easily ranked in terms of potency in this assay. The actual IC50's as judged by this method are approximate. They were 0.3 and 0.05 μg/ml for compounds 16 and 17, respectively.

[3] = test system: RSV A2; assay type: in vivo, cotton rats; details: for inhibition of RSV in vivo (summary): cotton rats, all experiments of Table 3
[4] = test system: RSV; assay type: in vivo, cotton rats; details: EXPT 3, Lavage/Plaque
[5] = test system: RSV; assay type: in vivo, cotton rats; details: EXPT 3, Lung/Plaque
[6] = test system: viral protein synthesis; assay: viral protein synthesis in infected vero cells (mechanism of action); assay type: cell-based
Description: The time in the virus life-cycle when Example 1 exerts its effect was determined to increase understanding of the mechanism of action. This was accomplished by adding and removing the compound at various times relative to infection and assessing the effect on viral protein synthesis. Vero cells were infected on ice for 1 hour, unadsorbed virus was removed, and then the infected cells were incubated at 37° C. for 18 hours (virus adsorption will occur on ice, but fusion will not proceed until the temperature is raised to 18° C. or above). After the 18 hour incubation at 37° C. (when the bulk of ongoing protein synthesis was directed by viral RNAs), ^35 S-methionine was added for 2 hours, the cells were lysed, and the labeled proteins were analyzed on SDS-PAGE gels. The viral N, P, and M proteins were then evident. […] However, when the compound of Example 1 was added even after only 5 minutes incubation at 37° C., viral protein production was unimpeded. Therefore, the process inhibited was the fusion process or some closely succeeding step which is required for later viral gene expression.

[7] = test system: RSV (A2); assay: viral plaque reduction assay, RSV A2; assay type: cell-based, human respiratory syncytial virus; details: Table 1; vero cells
[8] = test system: CMV (Ad169); assay: viral plaque reduction assay, CMV Ad169; assay type: cell-based, human cytomegalovirus; details: Table 1; HF cells
[9] = test system: CMV (Ad169); assay: viral yield reduction assay (growth inhibition), CMV; assay type: cell-based, human cytomegalovirus; details: Human betaherpesvirus 5, AD169, 96 h, HF cells, 4 days
Description: as §1, §2, §3, §4, §5

[10] = EXPT 3, i.n. 30 mg/k d 1,2,3, Lavage/CPE
[11] = EXPT 3, i.n. d 0 15 mg/k, d 1 30 mg/k, Lavage/CPE
[12] = EXPT 3, i.n. d 0 15 mg/k, d 1,2,3 30 mg/k, Lavage/CPE
[13] = EXPT 3, i.p. 30 mg/k d 1,2,3, Lavage/CPE
[14] = i.n. d 0 15 mg/k, d 1,2,3 30 mg/k

4,4'-Bis[4,6-di[4-amino-N'-[3-aminophenyl-N,N-bis(2-hydroxyethyl)sulfonylimino]-benzensulfoamide]-1,3,5-triazin-2-ylamino]-stilbene-2,2'-disulfonic acid, disodium salt [Example 25]
IC50 in growth inhibition RSV/VERO ([1]; vero cells): 30 µg/mL

4-[4.6-Di[3-aminophenyl-N,N-bis(2-carbamoylethyl)sulfonylimino]-1,3,5-triazin-2-ylamino]-4'-(4-[3-aminophenyl-N,N-bis(2-carbamoylethyl)sulfonylimino]- 6-[3-aminophenyl-N,N bis(3-propionic acid)-1,3,5-triazin-2-ylamino]-stilbene-2,2'-disulphonic acid, disodium salt [Example 10]
IC50 in growth inhibition RSV/HF ([1]; HF cells): < 3 µg/mL | IC50 in growth inhibition RSV/VERO ([1]; vero cells): 0.7 µg/mL

NC(=O)CCN(CCC(N)=O)S(=O)(=O)c1cccc(Nc2nc(Nc3cccc(S(=O)(=O)N(CCC(N)=O)CCC(N)=O)c3)nc(Nc3ccc(-c4ccc(Nc5nc(Nc6cccc(S(=O)(=O)N(CCC(N)=O)CCC(N)=O)c6)nc(Nc6cccc(S(=O)(=O)N(CCC(N)=O)CCC(N)=O)c6)n5)cc4S(=O)(=O)O)c(S(=O)(=O)O)c3)n2)c1 [Example 4, 4,4'-Bis[4,6-di[3-aminophenyl-N,N-bis(2-carbamoyl-ethyl)sulfonylimino]-1,3,5-triazin-2-ylamino]-biphenyl-2,2'-disulfonic acid, disodium salt]
inhibition of syncytium formation [2]: inhibit syncytium formation | Fold red. [3, 10]: 2.51 log10 | Mean titer [3, 10]: 1.67 log10/g lung | Fold red. [3, 11]: 2.52 log10 | Mean titer [3, 11]: 1.66 log10/g lung | Fold red. [3, 12]: 2.13 log10 | Mean titer [3, 12]: 2.05 log10/g lung | Fold red. [3, 13]: 0 log10 | Mean titer [3, 13]: 4.18 log10/g lung | inhibition of RSV in vivo (summary) [3]: inhibit RSV in vivo | Fold red. ([3]; rat, in vivo): 1.63 log10 | Mean titer ([3]; rat, in vivo): 2.05 log10/g lung | Fold red. ([4]; i.n. 30 mg/k d 1,2,3): 1.2 log10 | Mean titer ([4]; i.n. 30 mg/k d 1,2,3): 3.09 log10/g lung | Fold red. ([4]; i.n. d 0 15 mg/k, d 1 30 mg/k): 2.03 log10 | Mean titer ([4]; i.n. d 0 15 mg/k, d 1 30 mg/k): 2.26 log10/g lung | Fold red. [4, 14]: 2.04 log10 | Mean titer [4, 14]: 2.25 log10/g lung | Fold red. ([4]; i.p. 30 mg/k d 1,2,3): 0.09 log10 | Mean titer ([4]; i.p. 30 mg/k d 1,2,3): 4.1 log10/g lung | Fold red. ([5]; i.n. 30 mg/k d 1,2,3): 1.18 log10 | Mean titer ([5]; i.n. 30 mg/k d 1,2,3): 3.37 log10/g lung | Fold red. ([5]; i.n. d 0 15 mg/k, d 1 30 mg/k): 2.23 log10 | Mean titer ([5]; i.n. d 0 15 mg/k, d 1 30 mg/k): 2.32 log10/g lung | Fold red. [5, 14]: 2.3 log10 | Mean titer [5, 14]: 2.25 log10/g lung | Fold red. ([5]; i.p. 30 mg/k d 1,2,3): 0.26 log10 | Mean titer ([5]; i.p. 30 mg/k d 1,2,3): 3.92 log10/g lung

NC(=O)CCN(CCC(N)=O)S(=O)(=O)c1cccc(Nc2nc(Nc3cccc(S(=O)(=O)N(CCC(N)=O)CCC(N)=O)c3)nc(Nc3ccc(/C=C/c4ccc(Nc5nc(Nc6cccc(S(=O)(=O)N(CCC(N)=O)CCC(N)=O)c6)nc(Nc6cccc(S(=O)(=O)N(CCC(N)=O)CCC(N)=O)c6)n5)cc4S(=O)(=O)O)c(S(=O)(=O)O)c3)n2)c1 [Example 1, 4,4'-Bis[4.6-di[3-aminophenyl-N,N-bis(2-carbamoyl-ethyl)sulfonylimino]-1,3,5-triazin-2-ylamino]-stilbene-2,2'-disulfonic acid, disodium salt]
viral protein synthesis ([6]; 10 μg/ml added immediately after virus adsorption and before raising temperature to 37° C.): fully prevented | viral protein production ([6]; added after only 5 minutes incubation at 37° C.): unimpeded | inhibition of syncytium formation [2]: inhibit syncytium formation | inhibition of RSV in vivo (summary) [3]: inhibit RSV in vivo | Mean titer ([3]; rat, in vivo, disodium salt): 2.8 log10/g lung and 1.73 log10/g lung and 3.43 log10/g lung

9.9-Dioxo-2,7-Bis[4,6-di[3-aminophenyl-N,N-bis(2-carbamoylethyl)sulfonylimino]-1,3,5-triazin-2-ylamino]-dibenzothiophen-3.6-disulfonic acid, disodium salt [Example 23]
IC50 in plaque assay RSV/VERO [7]: 8 µg/mL | IC50 in plaque assay CMV/HF [8]: 20 µg/mL

NC(=O)CCN(CCC(N)=O)S(=O)(=O)c1cccc(Nc2nc(Cl)nc(Nc3ccc(/C=C/c4ccc(Nc5nc(Cl)nc(Nc6cccc(S(=O)(=O)N(CCC(N)=O)CCC(N)=O)c6)n5)cc4S(=O)(=O)O)c(S(=O)(=O)O)c3)n2)c1 [Example 8, 4,4'-Bis[4-chloro-6-[3-aminophenyl-N,N-bis(2-carbamoylethyl)sulfonylimino]-1,3,5-triazin-2-ylamino]-stilbene-2,2'-disulphonic acid, disodium salt]
IC50 ([1]; HF cells, read-out: IC50 in growth inhibition RSV/HF): > 50 µg/mL | IC50 ([1]; vero cells, read-out: IC50 in growth inhibition RSV/VERO): > 50 µg/mL | IC50 [9]: > 50 µg/mL

NC(=O)c1ncn([C@@H]2O[C@H](CO)[C@@H](O)[C@H]2O)n1 [Ribavirin, reference compound]
Fold red. ([3]; rat, in vivo): 0.8 log10 | Mean titer ([3]; rat, in vivo): 3.3 log10/g lung

4,4'-Bis[4-chloro-6-di[4-amino-N'-[3-aminophenyl-N,N-bis(2-carbamoylethyl)sulfonylimino]-benzamide]-1,3,5-triazin-2-ylamino]-stilbene-2,2'-disulfonic acid, disodium salt [Example 24]
IC50 in growth inhibition RSV/VERO ([1]; vero cells): 50 µg/mL
